Reference: US4083987A, “4-Imino-1,3-diazabicyclo-(3.1.0)-hexan-2-one as a cancerostat and immuno-stimulant” (Boehringer Mannheim GmbH, priority 1975, dated 1978)

Experiments:
[1] = system: antibody-forming spleen cells; test: Number of antibody-forming spleen cells by Jerne's method after intravenous administration; assay type: in vivo, mice; conditions: three days; for number of antibody-forming spleen cells: mice immunized with sheep erythrocytes, control 4,600; for antibody-forming spleen cells, % of the control: mice
Description: 20 male white mice with a body weight of 20 to 25 g were each immunized with 1 ml preserved sheep erythrocytes (1 ml contains 5 × 10^8 erythrocytes). On the same day, 4-imino-1,3-diazabicyclo[3.1.0]hexan-2-oneor a comparative active material, dissolved in 5 ml physiological saline/kg. mouse body weight, were administered intravenously. For control purposes, 20 animals were also immunized with 1 ml sheep erythrocytes and treated with 5 ml/kg physiological saline. Three days after administration, the spleens of the animals were removed under sterile conditions and the number of antibody-forming spleen cells determined according to Jerne's technique. The individual values were determined.

[2] = Acute toxicity (LD50), mice; conditions: mouse, in vivo, po
in vivo = conditions: mouse, iv
[3] = Acute toxicity (LD50), rats; conditions: rat, in vivo, single intravenous dose
Walker sarcoma 256 = test: Cancerostatic effectiveness: inhibition of tumor growth of Walker sarcoma 256 after a single administration; assay type: in vivo, Sprague-Dawley rats; conditions: for % inhibition of the growth of Walker sarcoma 256: single administration, tumor weight after 10 days
Description: Sprague-Dawley rats with a body weight of 80 to 120 g and an age of 6 to 8 weeks were subcutaneously inoculated in the neck with tumor cells. In each case, there was used 0.1 ml of an aqueous suspension of about 10^6 tumor cells of the Walker sarcoma 256 (solid, rat).
4-Imino-1,3-diazabicyclo[3.1.0]hexan-2-one was dissolved in physiological saline solution (in each case, the desired amount in 5 ml solution/kg body weight of experimental animal). 6 Hours after inoculation of the animals, these solutions were administered intravenously or orally by means of a stomach tube. The control animals received 5 ml/kg body weight of physiological saline. 20 experimental animals and 20 control animals were used per experiment. The animals were sacrificed with ether after 10 days, the tumors extirpated and the weight of the tumors of the control group compared with those of the experimental group.

[4] = Solubility in water, physiological saline and aqueous alkali metal hydroxide solutions; assay type: physicochemical
leukocytes = test: Immunity-stimulating action: corpuscular blood components (leukocytes, lymphocytes, erythrocytes) after a single intravenous administration; assay type: in vivo, Sprague-Dawley rats; conditions: for number of leukocytes/mm^3: third day, control 7,300
Description: The active material, dissolved in 5 ml physiological saline, was administered intravenously into a vein in the tails of 8 Sprague-Dawley rats with an average body weight of 200 to 250 g. As controls, there were used 8 rats which were only treated with 5 ml physiological saline per kg. body weight. In the following days, 1 to 2 drops of blood were taken from a tail vein and the corpuscular blood components determined. The average values were determined statistically from the 8 values of the individual animals.

Stability = assay type: physicochemical
[5] = single intravenous, rats, in words

## phytohaemagglutinin
[1]; 500.0 mg/kg intravenous
  number of antibody-forming spleen cells: 1,400 spleen cells
  antibody-forming spleen cells, % of the control: 30 % of the control

## N=C1NC(=O)N2CC12 (centres unmarked) [4-imino-1,3-diazabicyclo-[3.1.0]hexan-2-one]
[2]
  LD50: > 4000 mg/kg
In vivo
  LD50: 750 mg/kg
[3]
  LD50: 660 mg/kg
[1]; 2.5 mg/kg intravenous
  number of antibody-forming spleen cells: 23,000 spleen cells
  antibody-forming spleen cells, % of the control: 500 % of the control
Walker sarcoma 256; intravenous and oral administration
  tumor growth: significantly inhibited
Walker sarcoma 256; intravenous, 0.1 mg/kg
  % inhibition of the growth of Walker sarcoma 256: 7.5%
Walker sarcoma 256; intravenous, 1.0 mg/kg
  % inhibition of the growth of Walker sarcoma 256: 17.5%
Walker sarcoma 256; intravenous, 10.0 mg/kg
  % inhibition of the growth of Walker sarcoma 256: 49.5%
Walker sarcoma 256; intravenous, 100.0 mg/kg
  % inhibition of the growth of Walker sarcoma 256: 31.0%
Walker sarcoma 256; intravenous, 200.0 mg/kg
  % inhibition of the growth of Walker sarcoma 256: 39.5%
Walker sarcoma 256; oral, 5.0 mg/kg
  % inhibition of the growth of Walker sarcoma 256: 20.0%
Walker sarcoma 256; oral, 125.0 mg/kg
  % inhibition of the growth of Walker sarcoma 256: 62.0%
[4]
  water solubility: good water solubility
[4]; physiological saline and aqueous alkali metal hydroxide solutions
  solubility: very readily soluble
leukocytes; 2 mg/kg rat, single intravenous
  number of leukocytes/mm^3: 10,300 leukocytes/mm^3
leukocytes; 5 mg/kg rat, single intravenous
  number of leukocytes/mm^3: 9,800 leukocytes/mm^3
leukocytes; 10 mg/kg rat, single intravenous
  number of leukocytes/mm^3: 10,800 leukocytes/mm^3
leukocytes; 20 mg/kg rat, single intravenous
  number of leukocytes/mm^3: 12,300 leukocytes/mm^3
leukocytes; 40 mg/kg rat, single intravenous
  number of leukocytes/mm^3: 10,800 leukocytes/mm^3
leukocytes; 75 mg/kg rat, single intravenous
  number of leukocytes/mm^3: 11,800 leukocytes/mm^3
leukocytes; 150 mg/kg rat, single intravenous
  number of leukocytes/mm^3: 8,000 leukocytes/mm^3
leukocytes; 400 mg/kg rat, single intravenous
  number of leukocytes/mm^3: 6,500 leukocytes/mm^3
leukocytes; deduced from the experiments, all at once or in several doses
  dosage necessary for immunity stimulation: 1 to 50 mg/kg body weight
leukocytes; immunity stimulation
  time after which the effect slowly decreases: about 2 weeks
leukocytes; [5]
  number of leukocytes: increased considerably
  percentage proportion of the lymphocytes: increased
leukocytes; single intravenous, rats, whole experimental period
  number of erythrocytes: did not change significantly
leukocytes; single intravenous, rats, only after the expiry of
  time until the values of the control animals were again reached: 20 to 25 days
Stability; acid
  acid stability: acid labile
Stability; dry form
  stability in dry form: stable in dry form

## O=P1(N(CCCl)CCCl)NCCCO1 (centres unmarked) [cyclophosphamide]
[1]; 125.0 mg/kg intravenous
  number of antibody-forming spleen cells: 460 spleen cells
  antibody-forming spleen cells, % of the control: 10 % of the control
